System: Caco-2 cell line
Test: Caco-2 permeability testing
Format: in vitro ADME, human
Set-up: Efflux (first figure of Efflux/permeability), Papp (B-A) / Permeability (second figure of Efflux/permeability), Papp (A-B): unit not given here
Conditions: for Permeability (second figure of Efflux/permeability), Papp (A-B): Caco-2, A-B; for Permeability (second figure of Efflux/permeability), Papp (A-B) / Efflux (first figure of Efflux/permeability), Papp (B-A): 90 min; for Efflux (first figure of Efflux/permeability), Papp (B-A): Caco-2, B-A; for intestinal absorption predicted by in vitro PK profiles: in words
How it was run: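 Caco-2 monolayers grown 21-27 days in MEM + 10% FBS + 1% NEAA; bidirectional transport (A-B, B-A) in HBSS with 25 mM HEPES, pH 7.4, 10 μM compound donor with 5 μM Lucifer Yellow as monolayer marker. Papp measured each direction, quantified against standard curve with internal standard; efflux ratio Papp(B-A)/Papp(A-B).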

SMILES | Permeability (second figure of Efflux/permeability), Papp (A-B) | Efflux (first figure of Efflux/permeability), Papp (B-A) | intestinal absorption predicted by in vitro PK profiles | Efflux/Permeability ratio (desired <3) (Caco-2, Papp (B-A)/Papp (A-B))
Cn1nc(C(=O)NC2CCN(CCN3CCCC3)CC2)c2ccc(N3CCCCCC3)nc21 [EBP1597] | 9 | 7 | moderate intestinal absorption | 
CC(C)N1CCC(NC(=O)c2nn(C)c3nc(N4CCCCCC4)ccc23)CC1 [EBP1604] |  |  | moderate intestinal absorption | 
CCN1CCC(NC(=O)c2nn(C)c3nc(N4CCCCCC4)ccc23)CC1 [EBP1595] | 15 | 14 | moderate intestinal absorption | 
Cn1nc(C(=O)NC2CCN(CCN3CCCCC3)CC2)c2ccc(N3CCCCCC3)nc21 [EBP1047] | 11 | 8 | moderate intestinal absorption | 0.8
